Where two headings read alike, the source gives them in different places.
System: recombinant NL-Rluc virus
Assay: Inhibition of HIV replication (NL-RLuc luciferase reporter virus in MT-2 cells)
Assay type: cell-based
[1] = Human immunodeficiency virus 1, MT2, 120 h, read-out: EC50 μM
[2] = Human immunodeficiency virus 1, MT2, 120 h, read-out: Activity

| Structure (SMILES) | EC50 [1] | EC50 (read-out: Activity, MT-2 cells infected with NL-RLuc virus, 5 days of incubation, luciferase readout, serum condition not given) | EC50 [2] |
| --- | --- | --- | --- |
| Cc1nc2cc(-c3cccc(-c4ccccc4)c3)nn2c(N2CCC3(C)CC3C2)c1[C@H](OC(C)(C)C)C(=O)O (stereo partly drawn) [Example 62, (2S)-2-(2-([1,1′-Biphenyl]-3-yl)-5-methyl-7-(6-methyl-3-azabicyclo[4.1.0]heptan-3-yl)pyrazolo[1,5-a]pyrimidin-6-yl)-2-(tert-butoxy)acetic acid] | 0.42 µM | 0.1 to 1 µM |  |
| Cc1nc2cc(-c3ccccc3)nn2c(N2CCC3(CCCC3)C2)c1[C@H](OC(C)(C)C)C(=O)O [Example 26, (S)-2-(tert-butoxy)-2-(5-methyl-2-phenyl-7-(2-azaspiro[4.4]nonan-2-yl)pyrazolo[1,5-a]pyrimidin-6-yl)acetic acid] | 0.3 µM |  | 0.1 to 1 µM |
| Cc1nc2cc(-c3ccccc3)nn2c(N2CCC(Br)CC2)c1C(OC(C)(C)C)C(=O)O (centres unmarked) [Example 22] |  |  | > 1 µM |
| CCC1(C)CCN(c2c([C@H](OC(C)(C)C)C(=O)O)c(C)nc3cc(-c4ccccc4)nn23)CC1 [Example 29, (S)-2-(tert-butoxy)-2-(7-(4-ethyl-4-methylpiperidin-1-yl)-5-methyl-2-phenylpyrazolo[1,5-a]pyrimidin-6-yl)acetic acid] |  |  | 0.1 to 1 µM |
| Cc1nc2cc(-c3cc(-c4ccccc4)ccn3)nn2c(N2CCC(C)(C)CC2)c1[C@H](OC(C)(C)C)C(=O)O [Example 65, (S)-2-(tert-Butoxy)-2-(7-(4,4-dimethylpiperidin-1-yl)-5-methyl-2-(4-phenylpyridin-2-yl)pyrazolo[1,5-a]pyrimidin-6-yl)acetic acid] |  |  | 0.1 to 1 µM |
| COc1ccccc1-c1cccc(-c2cc3nc(C)c([C@H](OC(C)(C)C)C(=O)O)c(N4CCC(C)(C)CC4)n3n2)c1 [Example 59, (S)-2-(tert-Butoxy)-2-(7-(4,4-dimethylpiperidin-1-yl)-2-(2′-methoxy-[1,1′-biphenyl]-3-yl)-5-methylpyrazolo[1,5-a]pyrimidin-6-yl)acetic acid] | 0.015 µM |  | < 0.1 µM |
| Cc1nc2nc(-c3ccccc3)nn2c(N2CC[C@H]3CCCC[C@@H]3C2)c1C(OC(C)(C)C)C(=O)O (stereo partly drawn) [Example 40, 2-(tert-Butoxy)-2-(5-methyl-7-((4aR,8aS)-octahydroisoquinolin-2(1H)-yl)-2-phenyl-[1,2,4]triazolo[1,5-a]pyrimidin-6-yl)acetic acid] |  |  | > 1 µM |
| Cc1nc2cc(-c3cccc(-c4ccc(F)cc4)c3)nn2c(N2CCC(C)(C)CC2)c1[C@H](OC(C)(C)C)C(=O)O [Example 56, (S)-2-(tert-Butoxy)-2-(7-(4,4-dimethylpiperidin-1-yl)-2-(4′-fluoro-[1,1′-biphenyl]-3-yl)-5-methylpyrazolo[1,5-a]pyrimidin-6-yl)acetic acid] |  |  | 0.1 to 1 µM |
| Cc1nc2nc(-c3ccccc3)nn2c(N2CCC(C)(C)CC2)c1C(OC(C)(C)C)C(=O)O (centres unmarked) [Example 37, 2-tert-Butoxy-2-(7-(4,4-dimethylpiperidin-1-yl)-5-methyl-2-phenyl-[1,2,4]triazolo[1,5-a]pyrimidin-6-yl)acetic acid] | 0.24 µM |  | 0.1 to 1 µM |
| Cc1nc2cc(-c3ccccc3)nn2c(N2Cc3ccccc3C2)c1C(OC(C)(C)C)C(=O)O (centres unmarked) [Example 5, 2-(tert-butoxy)-2-(7-(isoindolin-2-yl)-5-methyl-2-phenylpyrazolo[1,5a]pyrimidin-6-yl)acetic acid] |  |  | > 1 µM |

From patent US9034882B2, “Inhibitors of human immunodeficiency virus replication” (priority 2012, dated 2015)
